Consider 1 compound from patent publication US12011448B2, “Therapeutic or preventing agent for nephrotic syndrome including indole compound” (Japan Tobacco Inc., priority 2018, dated 2024).

Structures are written as SMILES.

In experiment [1] the target is T1, inducible T cell kinase (ITK) (Homo sapiens, UniProt Q08881).
T1 sequence (Q08881 1-620): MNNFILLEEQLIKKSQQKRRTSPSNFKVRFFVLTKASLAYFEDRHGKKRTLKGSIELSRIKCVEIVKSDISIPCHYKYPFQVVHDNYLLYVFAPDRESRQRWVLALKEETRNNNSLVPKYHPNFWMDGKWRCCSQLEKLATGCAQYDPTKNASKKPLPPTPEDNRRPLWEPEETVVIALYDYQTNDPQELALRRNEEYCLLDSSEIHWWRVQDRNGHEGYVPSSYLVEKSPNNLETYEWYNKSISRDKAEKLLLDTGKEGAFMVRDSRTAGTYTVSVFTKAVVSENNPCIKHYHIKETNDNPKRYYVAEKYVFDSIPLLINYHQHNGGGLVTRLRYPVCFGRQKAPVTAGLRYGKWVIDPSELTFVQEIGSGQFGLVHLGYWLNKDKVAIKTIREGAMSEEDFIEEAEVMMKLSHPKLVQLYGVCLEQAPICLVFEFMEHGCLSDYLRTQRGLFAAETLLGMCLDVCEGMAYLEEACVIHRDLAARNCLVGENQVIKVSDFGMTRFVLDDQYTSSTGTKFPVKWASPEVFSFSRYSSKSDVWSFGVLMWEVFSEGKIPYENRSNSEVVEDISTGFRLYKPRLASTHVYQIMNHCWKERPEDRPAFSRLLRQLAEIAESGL
The conditions noted are these: described in patent document 1 (WO 2011/065402); cited from earlier work.

Experiment [2] relates to rat anti-glomerular basement membrane (GBM) antibody induced nephritis model. The experiment is described as follows: rat anti-GBM antibody induced nephritis model (urinary protein excretion, plasma total cholesterol). It counts as in vivo. To be noted: disease animal model showing nephrotic syndrome-like symptoms. The procedure: Using a rat anti-GBM antibody induced nephritis model, the suppressive effect of Compound A on an increase in urinary protein excretion and plasma total cholesterol concentration so was evaluated. The evaluation was performed by reference to non-patent document 2. As the experiment animal, 8-week-old female WKY/NCrlCrlj rat (CHARLES RIVER LABORATORIES JAPAN, INC.) was used. Monohydrochloride of Compound A was dissolved in 0.5% (w/v) methylcellulose (MC) to prepare 2 mg/mL and 6 mg/mL Compound A solutions. Ciclosporin (Wako Pure Chemical Industries, Ltd., 0.5% (w/v)) was suspended in MC to prepare a 2 mg/mL Ciclosporin suspension. […]
As for urine, the urine volume was measured, after which the protein concentration in the centrifugal supernatant was measured by absorbance at wavelength 600 nm/sub-wavelength 660 nm using a total protein assay kit (micro TP-Test Wako, Wako Pure Chemical Industries, Ltd.). The urinary protein excretion (mg/day) was calculated from the urine volume and the protein concentration.
As for blood, the total cholesterol concentration (mg/dL) in plasma obtained by centrifugation was measured using a biochemical automatic analysis apparatus (Hitachi automatic analysis apparatus 7180, Hitachi High-Technologies).
The mean of the urinary protein excretion and the plasma total cholesterol concentration was calculated.

Regarding `C[C@@H](C(=O)N(C)c1ccc2cc(-c3n[nH]c4c3CCC(C)(C)C4)[nH]c2c1)N1CCOCC1` [Compound A, N-[2-(6,6-dimethyl-4,5,6,7-tetrahydro-1H-indazol-3-yl)-1H-indol-6-yl]-N-methyl-(2S)-2-(morpholin-4-yl)propanamide], in experiment [1], the “inducible T cell kinase (ITK) inhibitory activity” value is given as “has an inducible T cell kinase (ITK) inhibitory activity”. Further, the “severity of the disease” value in experiment [2] was “significantly reduce severity of the disease”.
